Experiments:
[1] = system: melan-a cells; assay: Melanin assay in cultured murine melanocytes (melan-a); assay type: cell-based; details: 72 hours; for % of control remaining @ 1 μM / % of control remaining @ 5 μM: melanin, melan-a cells
Experimental: The Spectrum Collection library consisting of 2000 drug compounds or natural products was screened to identify novel pigmentation inhibitors or stimulators in cultured murine melanocytes (melan-a). Compounds were dissolved in dimethylsulfoxide (DMSO) to a final concentration of 10 mM. Screening was performed with cultured melanocytes in 24-well plates followed by melanin assay (see below). A minimum change of 50% in melanin formation was established as significant for a pigmentation inhibitor or stimulator. DMSO was used as a negative control and the widely used depigmenting agent, hydroquinone, was used as a positive control on every plate. […] Melan-a cells were plated at 5×10^4 cells per well in 1 ml of culture media in 24-well plates the day before adding the library compounds. All compounds were added at the indicated final concentrations. Cells were harvested after 72 hours of incubation, and melanin assay was performed. For the primary and secondary screening, cells were harvested and dissolved in 200 μl of 2N NaOH in 20% DMSO at 70° C. A 180-μl aliquot of the resulting solution was measured for absorbance at 490 nm. Cells are harvested in extraction buffer (1% Triton X-100, 50 mM Tris, 2 mM EDTA, 150 mM NaCl, pH 7.5) containing a complete protease inhibitor cocktail (Roche). The lysates were centrifuged at 14,000 rpm for 10 minutes at 4° C. BCA protein assay kit (Pierce) was used to measure the protein concentrations of the supernatants, and bovine serum albumin was used as a standard. […] A 180-μl aliquot of the resulting solution was measured for absorbance at 490 nm. The melanin contents were normalized to the total amount of protein. The IC50 value for inhibition of cellular melanin synthesis for conessine was determined by culturing melan-a cells with various concentrations of conessine for 72 hours. Briefly, melan-a cells were plated at 5×10^4 cells per well in 1 ml of culture media in 24-well plates the day before adding conessine. Conessine was added at the indicated final concentrations. DMSO was used as a negative control. Cells were harvested after 72 hours of incubation, and spectrophotometric melanin assay was performed on cell pellets. The melanin contents were normalized to the total amount of protein. Cell viability was determined by using the CellTiter 96 aqueous nonradioactive cell proliferation assay. […] Licorice extract was tested under similar conditions as conessine for its ability to decrease melanin synthesis in melan-a cells (FIG. 11c). Melan-a cells were plated at 5×10^4 cells per well in 1 ml of culture media in 24-well plates the day before adding Licorice extract. 70% ethanol was used as control and the Licorice extract was diluted in cell culture media at the indicated concentrations. […] Cells were harvested after 72 hours of incubation, and spectrophotometric melanin assay was performed on cell pellets. The melanin contents were normalized to the total amount of protein. Cell viability was determined by using the CellTiter 96 aqueous nonradioactive cell proliferation assay.

[2] = system: UV-induced pigmentation; details: topical application of 0.5%; cited from earlier work

SMILES	% of control remaining @ 1 μM [1]	% of control remaining @ 5 μM [1]	effect on melanin synthesis in melan-a cells ([1]; indicated concentrations)	inhibition of UV-induced pigmentation [2]
C[C@H]1C2CCC3[C@@H]4CC=C5C[C@@H](N(C)C)CC[C@]5(C)C4CC[C@@]32CN1C (mixture of isomers) [Compound 2, Con-5-enine, 3β-(dimethylamino)-, (±)-(8Cl) (Registry No: 14546-12-4)]	78.4 % of control	38.5 % of control		
Oc1ccc(O)cc1 [hydroquinone, reference compound]			significantly inhibited melanogenesis in a dose-dependent manner	
CC1(C)C=Cc2c(ccc3c2OC[C@@H](c2ccc(O)cc2O)C3)O1 [glabridin]				can inhibit the UV-induced pigmentation
CC1C2CCC3C4CC=C5CC(N(C)C)CCC5(C)C4CCC32CN1C (stereo not drawn) [Compound 3, N,N-Dimethylcon-5-enin-3-amine]	59.2 % of control	28.4 % of control		
